In patent publication US12486216B2, “Processes for preparing nitrosylated propanediols, compositions comprising the same, and medical uses thereof” (ATTGENO AB, priority 2018, dated 2025):

Assays:
[1] = Stability of non-aqueous mixtures of the nitrites in 1,2-propanediol (GC); type: physicochemical
Procedure: Three different concentrations of 1-(nitrosooxy)-propan-2-ol and 2-(nitrosooxy)-propan-1-ol in 1,2-propanediol were prepared and stored in both a refrigerator (5° C.) and freezer (−20° C.). Aliquots of each solution were taken periodically and analysed by GC to determine the concentration of 1-(nitrosooxy)-propan-2-ol and 2-(nitrosooxy)-propan-1-ol.
The results of the GC analysis are shown in the table below (column: Rxi-5Sil MS, 20 m×0.18 mm, […]; carrier: He; Inlet: 250° C., split ratio 100:1; constant flow: 1.0 mL/min; oven temperature profile: 40° C. (3 min), 10° C./min, 80° C. (0 min), 30° C./min, 250° C. (3 min); FID: 300° C., H2 flow 30 mL/min, air flow 400 mL/min, make-up flow (N2) 25 mL/min; internal standard: 1,1,1,3,5,5,5-heptamethyl trisiloxane): […]

[2] = test system: anesthetised and mechanically ventilated pigs with U46619-induced pulmonary hypertension; assay: In vivo study in pigs with U46619-induced pulmonary hypertension, PDNO infusion vs inhaled NO; settings: for mean pulmonary arterial pressure / pulmonary vascular resistance: median (interquartile range)
anesthetised pigs = assay: Pharmacological investigation of 1,2-PDNO—R, 1,2-PDNO—S and 1,3-PDNO in anesthetised pigs; type: in vivo, pig; settings: pH approximately 8
Text: Prior to experimentation, ethical approval was received from Linköping's regional animal ethics committee (Linköping, Sweden; approval number 953). In brief, 2 male and female pigs (a crossbreed between Swedish country breed, Hampshire and Yorkshire; 3-4 months old; 24-26 kg) were premedicated with azaperone at the farm and transported to the laboratory. At the laboratory, anaesthesia was induced with a mixture of tiletamine, zolazepam and azaperone (intramuscular injection). Propofol was given in a peripheral venous catheter in an ear vein, if needed. Bolus doses of atropine and cefuroxime were administered intravenously. The animals were endotracheally intubated and mechanically ventilated (5 cm H2O in positive end-expiratory pressure, minute ventilation was adjusted to normoventilation). General anaesthesia was maintained with propofol and fentanyl via continuous intravenous infusions, and additional bolus doses were given if needed. Ringer's acetate and glucose solutions were continuously administered intravenously to substitute for fluid loss. Heparin was given as an intravenous bolus dose after the surgical instrumentation. After the experiments the animals were killed in general anaesthesia with a propofol injection followed by a rapid intravenous injection of potassium chloride (40 mmol), and asystolia was confirmed.
The animals were instrumented with an arterial catheter in the right carotid artery for measurement of systemic arterial blood pressure and heart rate. A sheath was placed in the right external jugular vein for introduction of a pulmonary-arterial catheter. This catheter was used for continuous measurement of pulmonary arterial blood pressure, semi-continuous cardiac output and intermittent pulmonary wedge pressure. […] Respiratory gases, pressures and volumes were measured at the endotracheal tube. Respiratory and hemodynamic variables were measured by a Datex AS/3 (Helsinki, Finland) and data were collected by a computerised system (MP100 or MP150/Acknowledge 3.9.1, BIOPAC systems, Goleta, CA, USA). […]

[3] = Freezer (−20° C.), 10 days, Low conc.
[4] = Freezer (−20° C.), 10 days, Medium conc.
[5] = Freezer (−20° C.), 14 days, High conc.
[6] = Freezer (−20° C.), 27 days, Low conc.
[7] = Freezer (−20° C.), 27 days, Medium conc.
[8] = Freezer (−20° C.), 28 days, High conc.
[9] = Freezer (−20° C.), 56 days, High conc.
[10] = Freezer (−20° C.), 64 days, Low conc.
[11] = Freezer (−20° C.), 64 days, Medium conc.
[12] = Freezer (−20° C.), 84 days, High conc.
[13] = Freezer (−20° C.), 84 days, Low conc.
[14] = Freezer (−20° C.), 84 days, Medium conc.
[15] = Freezer (−20° C.), Start, High conc.
[16] = Freezer (−20° C.), Start, Low conc.
[17] = Freezer (−20° C.), Start, Medium conc.
[18] = Refrigerator (5° C.), 10 days, Low conc.
[19] = Refrigerator (5° C.), 10 days, Medium conc.
[20] = Refrigerator (5° C.), 14 days, High conc.
[21] = Refrigerator (5° C.), 27 days, Low conc.
[22] = Refrigerator (5° C.), 27 days, Medium conc.
[23] = Refrigerator (5° C.), 28 days, High conc.
[24] = Refrigerator (5° C.), 56 days, High conc.
[25] = Refrigerator (5° C.), 64 days, Low conc.
[26] = Refrigerator (5° C.), 64 days, Medium conc.
[27] = Refrigerator (5° C.), 84 days, High conc.
[28] = Refrigerator (5° C.), 84 days, Low conc.
[29] = Refrigerator (5° C.), 84 days, Medium conc.
[30] = Refrigerator (5° C.), Start, High conc.
[31] = Refrigerator (5° C.), Start, Low conc.
[32] = Refrigerator (5° C.), Start, Medium conc.
[33] = PDNO iv 15-60 nmol kg^−1 min^−1 or inhaled NO 5-40 ppm, during U46619
[34] = PDNO or inhaled NO during U46619, data not shown
[35] = 10-15 min iv infusion (1,2-PDNO—R and —S 43, 1,3-PDNO 30 nmol kg^−1 min^−1) into sodium bicarbonate carrier
[36] = U46619 infusion alone, data not shown

Compound | Concentration [1, 3] [% w/w] | Concentration [1, 4] [% w/w] | Concentration [1, 5] [% w/w] | Concentration [1, 6] [% w/w] | Concentration [1, 7] [% w/w] | Concentration [1, 8] [% w/w] | Concentration [1, 9] [% w/w] | Concentration [1, 10] [% w/w] | Concentration [1, 11] [% w/w] | Concentration [1, 12] [% w/w] | Concentration [1, 13] [% w/w] | Concentration [1, 14] [% w/w] | Concentration [1, 15] [% w/w] | Concentration [1, 16] [% w/w] | Concentration [1, 17] [% w/w] | Concentration [1, 18] [% w/w] | Concentration [1, 19] [% w/w] | Concentration [1, 20] [% w/w] | Concentration [1, 21] [% w/w] | Concentration [1, 22] [% w/w] | also measured
CC(O)CON=O (stereo not shown) [1-Nitrite, 1-(nitrosooxy)-propan-2-ol] | 0.08 | 0.81 | 3.76 | 0.07 | 0.74 | 3.72 | 3.55 | 0.07 | 0.74 | 3.50 | 0.08 | 0.78 | 3.75 | 0.08 | 0.81 | 0.08 | 0.86 | 3.72 | 0.09 | 0.81 | Concentration [1, 23]: 3.67 % w/w; Concentration [1, 24]: 3.47 % w/w; Concentration [1, 25]: 0.07 % w/w; Concentration [1, 26]: 0.73 % w/w; Concentration [1, 27]: 3.33 % w/w; Concentration [1, 28]: 0.07 % w/w; Concentration [1, 29]: 0.77 % w/w; Concentration [1, 30]: 3.75 % w/w; Concentration [1, 31]: 0.08 % w/w; Concentration [1, 32]: 0.81 % w/w
CC(CO)ON=O (stereo not shown) [2-Nitrite, 2-(nitrosooxy)-propan-1-ol] | 0.06 | 0.63 | 2.89 | 0.06 | 0.57 | 2.93 | 2.74 | 0.06 | 0.58 | 2.71 | 0.06 | 0.62 | 2.94 | 0.06 | 0.61 | 0.06 | 0.67 | 2.91 | 0.07 | 0.63 | Concentration [1, 23]: 2.90 % w/w; Concentration [1, 24]: 2.69 % w/w; Concentration [1, 25]: 0.06 % w/w; Concentration [1, 26]: 0.57 % w/w; Concentration [1, 27]: 2.59 % w/w; Concentration [1, 28]: 0.06 % w/w; Concentration [1, 29]: 0.60 % w/w; Concentration [1, 30]: 2.94 % w/w; Concentration [1, 31]: 0.06 % w/w; Concentration [1, 32]: 0.61 % w/w
nitric oxide [inhaled NO] | – | – | – | – | – | – | – | – | – | – | – | – | – | – | – | – | – | – | – | – | Effect on pulmonary arterial pressure ([2]; PDNO iv 15-60 nmol kg^−1 min^−1 in sodium bicarbonate carrier or inhaled NO 5-40 ppm, during U46619): significantly reduced; Effect on methemoglobin concentration ([2]; PDNO iv 15-60 nmol kg^−1 min^−1 or inhaled NO 5-40 ppm, arterial blood): No drug significantly affected; Effect on mean arterial pressure [2, 33]: No drug significantly affected; Effect on pulmonary vascular resistance [2, 33]: significantly reduced; Effect on systemic vascular resistance [2, 33]: No drug significantly affected; Effect on arterial partial pressure of oxygen [2, 34]: increased this variable towards normal; Effect on cardiac output [2, 34]: no drug significantly changed; Pulmonary-to-systemic vascular resistances ratio compared to the PDNO group ([2]; at the highest doses, data not shown): slightly lower; Effect on pulmonary-to-systemic vascular resistances ratio ([2]; during U46619, data not shown): significantly decreased; Trend in methemoglobin concentration ([2]; inhaled NO group, associated to dose of delivered NO): tendency for an increase
O=NOCCCO [1,3-PDNO, 1-(nitrosooxy)propan-3-ol] | – | – | – | – | – | – | – | – | – | – | – | – | – | – | – | – | – | – | – | – | Effect on mean pulmonary arterial pressure (anesthetised pigs; [35]): decreased; Effect on mean systemic arterial pressure (anesthetised pigs; [35]): decreased; Vasodilation (anesthetised pigs; 10-15 min iv infusion into sodium bicarbonate carrier): caused systemic and pulmonary vasodilation
CCCCCC(O)C=CC1C2CC(CO2)C1CC=CCCCC(=O)O (stereo not drawn) [U46619, 9,11-dideoxy-9α, 11α-methanoepoxy PGF2α] | – | – | – | – | – | – | – | – | – | – | – | – | – | – | – | – | – | – | – | – | Effect on arterial partial pressure of oxygen [2, 36]: slightly decreased; Effect on cardiac output [2, 36]: slightly decreased; mean pulmonary arterial pressure ([2]; during iv U46619 60-150 ng kg^−1 min^−1, before NO inhalation): 43 (37-48) mmHg; mean pulmonary arterial pressure ([2]; during iv U46619 60-150 ng kg^−1 min^−1, before PDNO infusion): 43 (41-46) mmHg; pulmonary vascular resistance ([2]; during iv U46619, before NO inhalation): 8.3 (6.7-11.7) mmHg min l^−1; pulmonary vascular resistance ([2]; during iv U46619, before PDNO infusion): 9.8 (7.7-12.5) mmHg min l^−1
